# Data from US10351566B2, “Therapeutic compounds for pain and synthesis thereof” (priority 2015, dated 2019).
# Like-named read-outs stand apart in the source and are kept apart here.
# Tests used:
# in vitro = in vitro ADME; conditions: 1 μM, read-out: plasma protein bound (converted)
# Method: The plasma protein binding assay for Formula 1 was conducted in mouse and human plasma at a single concentration of 1 μM using the method of equilibrium dialysis. […] The plasma protein binding of the compound is acceptable.
# [1] = assay type: in vivo; conditions: naïve rats, dosing for 7 days
# Source text: At 4 days, vehicle-treated animals gained approximately 1% body weight, going from 25.24±0.74 g to 25.50±0.64 g. Formula 1 treated animals went from 25.28±1.04 g to 25.82±1.25 g.
# [2] = assay type: in vivo, rats; conditions: for Findings: PO, Rat
# Method: The tolerability of Formula 1 was evaluated in mice and rats. […] The compound was also tolerated following a single dose of 100 mg/kg in the mouse.
# CYP2C8 = molecular target: T1, CYP2C8 (Homo sapiens, UniProt P10632); assay: Reversible CYP450 inhibition, cocktail format; assay type: biochemical; conditions: 2C8, reversible inhibition, preliminary
# T1 sequence (P10632 1-490): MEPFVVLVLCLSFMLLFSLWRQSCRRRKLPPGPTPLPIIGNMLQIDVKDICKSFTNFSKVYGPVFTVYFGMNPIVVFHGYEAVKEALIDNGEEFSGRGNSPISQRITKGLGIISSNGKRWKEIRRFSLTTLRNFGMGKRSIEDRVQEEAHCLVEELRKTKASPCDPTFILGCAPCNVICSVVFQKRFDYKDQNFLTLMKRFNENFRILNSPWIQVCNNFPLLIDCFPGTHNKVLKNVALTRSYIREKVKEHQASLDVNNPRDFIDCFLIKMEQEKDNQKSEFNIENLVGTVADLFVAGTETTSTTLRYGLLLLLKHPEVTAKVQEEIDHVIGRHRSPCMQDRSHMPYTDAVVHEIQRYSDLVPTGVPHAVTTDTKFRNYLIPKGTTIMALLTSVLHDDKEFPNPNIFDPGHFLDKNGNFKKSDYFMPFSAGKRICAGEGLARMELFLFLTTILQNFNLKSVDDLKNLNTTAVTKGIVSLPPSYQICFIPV
# Method: Preliminary in vitro studies on reversible inhibition of major CYP450 enzymes were conducted in a cocktail format for this compound. The IC50 values were 4 μM for CYP2C9, 5 μM for CYP2C19, and greater than 10 μM for CYP3A4, 2C8, 2D6, and 1A2. If total plasma concentrations in humans are less than 0.4 μM, then in vivo drug interaction studies in clinical trials may not be required for this compound.
# [3] = system: Taxol-induced neuropathic pain; assay: Taxol-induced neuropathic pain in the rat, per oral; assay type: in vivo; conditions: Taxol rats
# Method: Study outline in brief: Taxol was administered daily for a period of 17 days (day 0 to day 16). On day 16, the withdrawal force was evaluated using the von Fey test. The animals experienced a reduction of more than 60% in the withdrawal force following repeated Taxol dosing. After a single treatment with Formula 1 at a dose of 50 mg/kg, a full reversal was recorded, i.e. the withdrawal force was similar to the values recorded prior to Taxol dosing commencement. The duration of the analgesic activity was at least 6 h.
# [4] = in vivo
# Source text: Formula 1 was discovered following a comprehensive Senerga® Phenotypic screening.
structure (smiles),measurement,setting,value
"CC(C)(C)C(=O)O[C@@H]1[C@@H]2[C@H]3C[C@H](C[C@@H]1N3Cc1ccccn1)CN2C(=O)CC(F)(F)F (relative stereo) [Formula 1, (2S*,3S*,3aS*,6R*,7aR*)-1-(pyridin-2-ylmethyl)-4-(3,3,3-trifluoropropanoyl)octahydro-1H-2,6-methanopyrrolo[3,2-b]pyridin-3-yl pivalate]",fraction unbound,in vitro; human plasma,0.08
same,fraction unbound,in vitro; mouse plasma,0.16
same,effect on body weight gain,[1],did not affect body weight gain
same,Findings,"[2]; 50 mg/kg, 5 days",NPF
same,Findings,"[2]; 100 mg/kg, 1 day",NPF
same,adverse effects,"[2]; rats, oral, once daily 50 mg/kg for 5 days",did not show any adverse effects
same,IC50,CYP2C8,> 10 µM
same,body weight loss following Taxol dosing,[3],the rate of weight loss was reduced
same,duration of the analgesic activity,[3]; oral 50 mg/kg,at least 6 h
same,withdrawal force vs. vehicle 24 h post-dosing,[3]; oral 50 mg/kg,no significant difference
same,withdrawal force (von Frey),[3]; single oral treatment 50 mg/kg,full reversal
same,activity in pain-related models,[4],showed activity in pain-related models
same,effect on blood pressure,[4],no effect on blood pressure
same,effect on bodyweight or food consumption,[4],no effect on bodyweight or food consumption
same,effect on specific CNS-related tests,[4],no effect on specific CNS-related tests
same,effect on swelling,[4],not effective on swelling
same,post-mortem finding,[4],no post-mortem finding
same,withdrawal threshold of naïve animals,[4],without affecting the withdrawal threshold of naïve animals
